Results reported in PMC4449299 (Developmental cell, 2015).
Values belong to the molecule of their own block, whether it stands above or below them.

How the values were obtained:
[1] = target: T1, Mid1 (C-terminal domain, 579-920) (Schizosaccharomyces pombe, UniProt P78953); assay: SPR, L1 chip, liposomes; assay type: binding; settings: PI(4,5)P2 vesicles; dimeric Mid1; given as 'up to'; room temperature
T1 sequence (P78953 579-920): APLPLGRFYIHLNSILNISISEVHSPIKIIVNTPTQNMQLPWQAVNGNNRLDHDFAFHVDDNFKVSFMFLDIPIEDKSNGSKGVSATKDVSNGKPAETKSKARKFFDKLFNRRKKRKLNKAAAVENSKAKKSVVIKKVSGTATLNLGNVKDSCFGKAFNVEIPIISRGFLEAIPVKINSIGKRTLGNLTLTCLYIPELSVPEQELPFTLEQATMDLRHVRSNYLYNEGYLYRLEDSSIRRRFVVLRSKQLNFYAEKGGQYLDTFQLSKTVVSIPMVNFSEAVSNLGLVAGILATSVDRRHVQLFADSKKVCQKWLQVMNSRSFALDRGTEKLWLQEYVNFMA

[2] = target: AHD-PH + RhoA* (Homo sapiens, UniProt Q9NQW6); assay: SPR, L1 chip, liposomes; assay type: binding; settings: PI(4,5)P2 vesicles; with lipid-modified RhoA; room temperature
[3] = target: T2, AHD (anillin-homology domain of anillin, 712-981) (Homo sapiens, UniProt Q9NQW6); assay: SPR, L1 chip, liposomes; assay type: binding; settings: PI(4,5)P2 vesicles; room temperature
T2 sequence (Q9NQW6 712-981): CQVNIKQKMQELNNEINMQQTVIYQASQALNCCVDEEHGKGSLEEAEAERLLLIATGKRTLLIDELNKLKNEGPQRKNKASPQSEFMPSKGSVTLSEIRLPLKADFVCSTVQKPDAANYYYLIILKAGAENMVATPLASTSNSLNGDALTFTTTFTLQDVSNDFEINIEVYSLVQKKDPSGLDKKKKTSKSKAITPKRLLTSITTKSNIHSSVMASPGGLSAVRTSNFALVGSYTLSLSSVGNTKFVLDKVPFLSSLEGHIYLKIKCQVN

[4] = target: RhoA(181)-Q63L (UniProt P61586 1-181, Q63L); assay: ITC
RhoA(181)-Q63L, sequence (P61586 1-181 Q63L): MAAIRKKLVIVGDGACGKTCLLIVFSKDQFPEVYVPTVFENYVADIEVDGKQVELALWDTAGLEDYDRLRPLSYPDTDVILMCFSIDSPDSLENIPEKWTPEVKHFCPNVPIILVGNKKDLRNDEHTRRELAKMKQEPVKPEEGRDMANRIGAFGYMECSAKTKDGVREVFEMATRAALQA

AHD-PH + RhoA*, sequence (Q9NQW6 712-1124): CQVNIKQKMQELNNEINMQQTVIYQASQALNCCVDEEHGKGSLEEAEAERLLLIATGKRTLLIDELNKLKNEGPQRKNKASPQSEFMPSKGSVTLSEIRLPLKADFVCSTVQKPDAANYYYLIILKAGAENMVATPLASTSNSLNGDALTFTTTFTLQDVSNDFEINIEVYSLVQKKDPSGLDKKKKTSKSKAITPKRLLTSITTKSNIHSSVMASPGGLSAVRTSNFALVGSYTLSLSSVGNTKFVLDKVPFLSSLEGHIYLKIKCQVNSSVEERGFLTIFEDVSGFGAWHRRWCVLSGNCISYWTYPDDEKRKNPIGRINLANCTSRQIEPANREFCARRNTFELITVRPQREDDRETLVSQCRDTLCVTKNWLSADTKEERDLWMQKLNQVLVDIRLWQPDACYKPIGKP
AHD-PH + RhoA*, sequence (P61586 1-190 partner): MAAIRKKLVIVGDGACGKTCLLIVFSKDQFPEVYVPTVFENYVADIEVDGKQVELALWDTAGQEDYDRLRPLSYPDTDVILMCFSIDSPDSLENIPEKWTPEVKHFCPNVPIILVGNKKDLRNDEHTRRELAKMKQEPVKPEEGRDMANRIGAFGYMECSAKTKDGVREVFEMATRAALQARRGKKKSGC

Kd [1]: 120 nM
Kd [2]: ~280 nM
Kd [3]: ~14 µM
Molecule: PI(4,5)P2

dH [4]: 3.97 kcal/mol
B1: anillin-homology domain (AHD) of human anillin (712–981) (domain or fragment, UniProt Q9NQW6 712-981, looked up)
chain: T2 sequence (Q9NQW6 712-981)
